According to ChEMBL document CHEMBL3885881, “DrugMatrix”:

Species: Rattus norvegicus
Experiment: DrugMatrix - Regimen: Daily Repeat
Format: toxicity, organism-based, Sprague-Dawley
Parameters: regimen Daily Repeat, gender Male, age 6-8 weeks
Conditions: in vivo, po, route oral GAVAGE, vehicle 100 % WATER; for ABSOLUTE BASOPHIL / ABSOLUTE EOSINOPHIL / ABSOLUTE LYMPHOCYTE / ABSOLUTE MONOCYTE / ABSOLUTE SEGMENTED NEUTROPHIL / BASOPHIL / EOSINOPHIL / ERYTHROCYTE COUNT / HEMATOCRIT / HEMOGLOBIN / LEUKOCYTE COUNT / LYMPHOCYTE / MEAN CORPUSCULAR HEMOGLOBIN / MEAN CORPUSCULAR HEMOGLOBIN CONCENTRATION / MEAN CORPUSCULAR VOLUME / MONOCYTE / NEUTROPHIL / NUCLEATED RED BLOOD CELLS / PLATELET COUNT: tissue Blood; for ALANINE AMINOTRANSFERASE / ALBUMIN / ALKALINE PHOSPHATASE / ASPARTATE AMINOTRANSFERASE / BLOOD UREA NITROGEN / CARBON DIOXIDE / CHLORIDE / CHOLESTEROL / CREATINE PHOSPHOKINASE / CREATININE / GLUCOSE / LACTATE DEHYDROGENASE / LIPASE / PHOSPHORUS / POTASSIUM / SODIUM / TOTAL BILIRUBIN / TOTAL PROTEIN / URIC ACID: tissue Plasma
[1] = 120 mg/kg, 120 h, dose level Low, time 5 day
[2] = 1200 mg/kg, 72 h, dose level High, time 3 day
[3] = 1200 mg/kg, 120 h, dose level High, time 5 day

## Cc1onc(-c2ccccc2Cl)c1C(=O)N[C@@H]1C(=O)N2[C@@H]1SC(C)(C)[C@@H]2C(=O)O [CLOXACILLIN]
[1]
  ABSOLUTE BASOPHIL: 0 CELLS/uL
  ABSOLUTE EOSINOPHIL: 0 CELLS/uL
  ABSOLUTE LYMPHOCYTE: 14591.67 CELLS/uL
  ABSOLUTE MONOCYTE: 338 CELLS/uL
  ABSOLUTE SEGMENTED NEUTROPHIL: 1970.33 CELLS/uL
  BASOPHIL: 0%
  EOSINOPHIL: 0%
  ERYTHROCYTE COUNT: 5.42 x10E6/uL
  HEMATOCRIT: 34.13%
  HEMOGLOBIN: 13.57 G/DL
  LEUKOCYTE COUNT: 16.9 x10E3/uL
  LYMPHOCYTE: 86.33%
  MEAN CORPUSCULAR HEMOGLOBIN: 25.07 pg
  MEAN CORPUSCULAR HEMOGLOBIN CONCENTRATION: 39.73 G/DL
  MEAN CORPUSCULAR VOLUME: 62.97 fL
  MONOCYTE: 2%
  NEUTROPHIL: 11.67%
  NUCLEATED RED BLOOD CELLS: 0 /100WBC
  PLATELET COUNT: 1237.33 x10E3/uL
  ALANINE AMINOTRANSFERASE: 51.33 u/L
  ALBUMIN: 4.13 G/DL
  ALKALINE PHOSPHATASE: 349.67 u/L
  ASPARTATE AMINOTRANSFERASE: 77.33 u/L
  BLOOD UREA NITROGEN: 15.67 mg/dL
  CARBON DIOXIDE: 27 mmol/L
  CHLORIDE: 101.33 MEQ/L
  CHOLESTEROL: 69.67 mg/dL
  CREATINE PHOSPHOKINASE: 381.33 u/L
  CREATININE: 0.14 mg/dL
  GLUCOSE: 149.67 mg/dL
  LACTATE DEHYDROGENASE: 190 u/L
  LIPASE: 8.33 u/L
  PHOSPHORUS: 11.87 mg/dL
  POTASSIUM: 6.69 MEQ/L
  SODIUM: 143.53 MEQ/L
  TOTAL BILIRUBIN: 0.13 mg/dL
  TOTAL PROTEIN: 5.77 G/DL
  URIC ACID: 1.5 mg/dL
[2]
  ABSOLUTE BASOPHIL: 0 CELLS/uL
  ABSOLUTE EOSINOPHIL: 0 CELLS/uL
  ABSOLUTE LYMPHOCYTE: 9313 CELLS/uL
  ABSOLUTE MONOCYTE: 140.33 CELLS/uL
  ABSOLUTE SEGMENTED NEUTROPHIL: 1013.33 CELLS/uL
  BASOPHIL: 0%
  EOSINOPHIL: 0%
  ERYTHROCYTE COUNT: 4.48 x10E6/uL
  HEMATOCRIT: 28.27%
  HEMOGLOBIN: 11.27 G/DL
  LEUKOCYTE COUNT: 10.47 x10E3/uL
  LYMPHOCYTE: 90%
  MEAN CORPUSCULAR HEMOGLOBIN: 25.37 pg
  MEAN CORPUSCULAR HEMOGLOBIN CONCENTRATION: 39.93 G/DL
  MEAN CORPUSCULAR VOLUME: 63.4 fL
  MONOCYTE: 1%
  NEUTROPHIL: 9%
  NUCLEATED RED BLOOD CELLS: 0 /100WBC
  PLATELET COUNT: 825.33 x10E3/uL
  ALANINE AMINOTRANSFERASE: 72 u/L
  ALBUMIN: 4.03 G/DL
  ALKALINE PHOSPHATASE: 414 u/L
  ASPARTATE AMINOTRANSFERASE: 89.67 u/L
  BLOOD UREA NITROGEN: 15 mg/dL
  CARBON DIOXIDE: 22.33 mmol/L
  CHLORIDE: 102.67 MEQ/L
  CHOLESTEROL: 86.33 mg/dL
  CREATINE PHOSPHOKINASE: 306 u/L
  CREATININE: 0.16 mg/dL
  GLUCOSE: 144.67 mg/dL
  LACTATE DEHYDROGENASE: 170 u/L
  LIPASE: 10.67 u/L
  PHOSPHORUS: 12.23 mg/dL
  POTASSIUM: 6.82 MEQ/L
  SODIUM: 143.7 MEQ/L
  TOTAL BILIRUBIN: 0.13 mg/dL
  TOTAL PROTEIN: 5.7 G/DL
  URIC ACID: 1.7 mg/dL
[3]
  ABSOLUTE BASOPHIL: 0 CELLS/uL
  ABSOLUTE EOSINOPHIL: 148.67 CELLS/uL
  ABSOLUTE LYMPHOCYTE: 18945 CELLS/uL
  ABSOLUTE MONOCYTE: 0 CELLS/uL
  ABSOLUTE SEGMENTED NEUTROPHIL: 1139.67 CELLS/uL
  BASOPHIL: 0%
  EOSINOPHIL: 0.67%
  ERYTHROCYTE COUNT: 5.75 x10E6/uL
  HEMATOCRIT: 35.27%
  HEMOGLOBIN: 13.97 G/DL
  LEUKOCYTE COUNT: 20.23 x10E3/uL
  LYMPHOCYTE: 93.67%
  MEAN CORPUSCULAR HEMOGLOBIN: 24.3 pg
  MEAN CORPUSCULAR HEMOGLOBIN CONCENTRATION: 39.6 G/DL
  MEAN CORPUSCULAR VOLUME: 61.33 fL
  MONOCYTE: 0%
  NEUTROPHIL: 5.67%
  NUCLEATED RED BLOOD CELLS: 0 /100WBC
  PLATELET COUNT: 1362 x10E3/uL
  ALANINE AMINOTRANSFERASE: 67 u/L
  ALBUMIN: 4.2 G/DL
  ALKALINE PHOSPHATASE: 356 u/L
  ASPARTATE AMINOTRANSFERASE: 78 u/L
  BLOOD UREA NITROGEN: 17.67 mg/dL
  CARBON DIOXIDE: 26 mmol/L
  CHLORIDE: 102.67 MEQ/L
  CHOLESTEROL: 75.33 mg/dL
  CREATINE PHOSPHOKINASE: 220.67 u/L
  CREATININE: 0.15 mg/dL
  GLUCOSE: 159.67 mg/dL
  LACTATE DEHYDROGENASE: 104 u/L
  LIPASE: 9.33 u/L
  PHOSPHORUS: 11.63 mg/dL
  POTASSIUM: 6.63 MEQ/L
  SODIUM: 144.07 MEQ/L
  TOTAL BILIRUBIN: 0.13 mg/dL
  TOTAL PROTEIN: 6.17 G/DL
  URIC ACID: 2 mg/dL
